# Measured values as given in PMC6155021, “Ancient and modern anticonvulsants act synergistically in a KCNQ potassium channel binding pocket” (Nature Communications, 2018).
# Biological target: KCNQ2/3 channels (Homo sapiens, UniProt O43525+O43526)
# Assay: Two-electrode voltage-clamp of KCNQ2/3 channels expressed in Xenopus laevis oocytes
# Assay type: cell-based
# Description: cRNA transcripts encoding human KCNA1, KCNQ1, KCNQ2, KCNQ3, KCNQ4, or KCNQ5 were generated by in vitro transcription using the T7 polymerase message machine kit (Thermo Fisher Scientific), after vector linearization, from cDNA sub-cloned into plasmids incorporating X. laevis β-globin 5′ and 3′ UTRs flanking the coding region to enhance translation and cRNA stability. cRNA was quantified by spectrophotometry. Mutant cDNAs were generated by site-directed mutagenesis using a QuikChange kit according to manufacturer’s protocol (Stratagene, San Diego, CA) and corresponding cRNAs prepared as above. Defolliculated stage V and VI X. laevis oocytes (Ecocyte Bioscience, Austin, TX) were injected with Kv channel α subunit cRNAs (10 ng total per oocyte). Oocytes were incubated at 16 °C in Barth’s saline solution (Ecocyte) containing penicillin and streptomycin, with daily washing, for 3–5 days prior to two-electrode voltage-clamp (TEVC) recording.
# Oocytes were placed in a small-volume oocyte bath (Warner) and viewed with a dissection microscope. Chemicals were sourced from Sigma. Bath solution was (in mM): 96 NaCl, 4 KCl, 1 MgCl2, 1 CaCl2, 10 HEPES (pH 7.6). […] MTX (DMSO), sorbic acid (ethanol), and glutaconic acid (molecular grade H2O) were stored at −20 °C as 1 M stocks. Oleamide was stored as a 1 mM stock in ethanol at 4 °C. Palmitic acid was conjugated with bovine serum albumin as a 1 mM stock and stored at −20 °C. All compounds were diluted to working concentrations each experimental day. All compounds were introduced to the recording bath via gravity perfusion at a constant flow of 1 ml/min for 3 min prior to recording. Pipettes were of 1–2 MΩ resistance when filled with 3 M KCl. Currents were recorded in response to pulses between −80 and +40 mV at 20 mV intervals, or a single pulse to +40 mV, from a holding potential of −80 mV, to yield current–voltage relationships, current magnitude, and for quantifying activation rate. TEVC data analysis was performed with Clampfit10.2 (Molecular Devices) and Graphpad Prism software (GraphPad, San Diego, CA, USA); values are stated as mean ± SEM. Normalized tail currents were plotted versus prepulse voltage and fitted with a single Boltzmann function:1 g=A1-A2/1+expV12-Vy+A2, where g is the normalized tail conductance, A1 is the initial value at −∞, A2 is the final value at +∞, V1/2 is the half-maximal voltage of activation, and Vs the slope factor. Activation and deactivation kinetics were fitted with single-exponential functions.
# [1] = KCNQ2/3, 30 µM, Supplementary Table 10
# [2] = KCNQ2/3, 30 µM, Supplementary Table 11
# [3] = KCNQ2/3, 30 µM, dose series (Supplementary Table 5)
smiles,measurement,setting,value
"CC(=O)c1c(O)c(C)c(O)c(Cc2c(O)c3c(c(C(=O)/C=C/c4ccccc4)c2O)OC(C)(C)C=C3)c1O [MTX, mallotoxin]",resting membrane potential (EM) of unclamped oocytes expressing KCNQ2/3,,dose-dependently hyperpolarizes
same,effects on KCNQ2/3,1 µM alone,negligible effects
same,effect on voltage dependence of KCNQ2/3 activation (initial screen),"30 µM, tail currents at −30 mV",negative-shifted
same,KCNQ2/3 current increase at −60 mV,100 µM,seven-fold
same,effect on KCNQ2/3 at +40 mV,+40 mV,little effect
same,EC50,"EC50, KCNQ2/3, current at −60 mV, calculated from dose responses",11.5 ± 0.2 µM
same,Non-normalized tail current V0.5,"KCNQ2/3, 0.1 µM",-47.3 ± 2.4 mV
same,Normalized tail current V0.5,"KCNQ2/3, 0.1 µM",-47.8 ± 0.5 mV
same,Slope,"KCNQ2/3, 0.1 µM",7.5 ± 0.4 mV
same,"τ act, -40 mV","KCNQ2/3, 0.1 µM",684 ± 55 ms
same,"τ deact, -80 mV","KCNQ2/3, 0.1 µM",236 ± 12 ms
same,Non-normalized tail current V0.5,"KCNQ2/3, 1 µM",-44.4 ± 4.9 mV
same,Normalized tail current V0.5,"KCNQ2/3, 1 µM",-47.0 ± 0.9 mV
same,Slope,"KCNQ2/3, 1 µM",7.4 ± 0.6 mV
same,"τ act, -40 mV","KCNQ2/3, 1 µM",611 ± 46 ms
same,"τ deact, -80 mV","KCNQ2/3, 1 µM",227 ± 20 ms
same,Non-normalized tail current V0.5,"KCNQ2/3, 3 µM",-47.3 ± 5.0 mV
same,Normalized tail current V0.5,"KCNQ2/3, 3 µM",-50.7 ± 1.0 mV
same,Slope,"KCNQ2/3, 3 µM",7.9 ± 0.8 mV
same,"τ act, -40 mV","KCNQ2/3, 3 µM",530 ± 37 ms
same,"τ deact, -80 mV","KCNQ2/3, 3 µM",259 ± 12 ms
same,Non-normalized tail current V0.5,"KCNQ2/3, 10 µM",-51.9 ± 4.8 mV
same,Normalized tail current V0.5,"KCNQ2/3, 10 µM",-56.2 ± 1.3 mV
same,Slope,"KCNQ2/3, 10 µM",6.8 ± 1.3 mV
same,"τ act, -40 mV","KCNQ2/3, 10 µM",462 ± 34 ms
same,"τ deact, -80 mV","KCNQ2/3, 10 µM",261 ± 7 ms
same,Non-normalized tail current V0.5,"KCNQ2/3, 30 µM",-54.9 ± 4.9 mV
same,Normalized tail current V0.5,"KCNQ2/3, 30 µM",-60.0 ± 1.8 mV
same,Slope,"KCNQ2/3, 30 µM",8.0 ± 1.8 mV
same,"τ act, -20 mV",[1],205 ± 6 ms
same,"τ act, -40 mV",[1],397 ± 26 ms
same,"τ act, -60 mV",[1],835 ± 51 ms
same,"τ deact, -80 mV",[2],143 ± 39 ms
same,"τ deact, -90 mV",[2],105 ± 4.2 ms
same,"τ deact, -100 mV",[2],77 ± 6.2 ms
same,"τ deact, -110 mV",[2],53 ± 3.5 ms
same,"τ deact, -120 mV",[2],36 ± 1.2 ms
same,"τ act, -40 mV",[3],403 ± 33 ms
same,"τ deact, -80 mV",[3],259 ± 18 ms
same,Non-normalized tail current V0.5,"KCNQ2/3, 100 µM",-56.6 ± 3.8 mV
same,Normalized tail current V0.5,"KCNQ2/3, 100 µM",-57.1 ± 0.6 mV
same,Slope,"KCNQ2/3, 100 µM",7.2 ± 0.5 mV
same,"τ act, -40 mV","KCNQ2/3, 100 µM",403 ± 34 ms
same,"τ deact, -80 mV","KCNQ2/3, 100 µM",415 ± 87 ms
same,shift in midpoint voltage dependence (V0.5) of activation,"KCNQ2/3, MTX 30 µM",−17 mV
same,EC50,"V0.5 EC50, KCNQ2/3, calculated from shift in V0.5",4 ± 0.2 µM
same,KCNQ2/3 current increase at −60 mV,either component alone (MTX 30 µM; IVA 500 µM),~ fivefold
same,time to plateau of KCNQ2/3 activation after wash-in,−60 mV current,5 min
